This passage reports melting point and MIC results from patent publication US7217726B2, “Antibacterial agents” (Orchid Chemicals & Pharmaceuticals Limited, priority 2002, dated 2007).

One series concerns S. aureus ATCC 29213. Put plainly: Agar Dilution Method MIC, S. aureus ATCC 29213. In kind it is cell-based. Particulars: Staphylococcus aureus, ATCC29213, Mueller Hinton Agar, 35° Celsius, 20 hours, read-out: Minimum Inhibitory Concentration (MIC in μg/ml). On the procedure:
(§1) Briefly, the compounds of invention were weighed, dissolved in Dimethyl Sulfoxide, serially diluted in the same solvent and then incorporated into molten Mueller Hinton Agar in a petridish before solidification, with each petridish containing a different concentration of a compound.
(§2) The Bacterial Inoculum was prepared by touching the tops of 3 to 5 well isolated bacterial colonies with the same morphological appearance from an 18 hour old culture with an inoculating loop, transfering the growth to a tube containing 5 ml of normal saline and adjusting the turbidity of the saline suspension to 0.5 Macfarland Turbidity Standard equivalent to a bacterial population of 1.5×10^8 colony forming units (CFU) per millilitre of suspension.
(§3) The bacterial inoculum prepared in the above manner was inoculated onto petri dishes containing Mueller Hinton Agar which had earlier been incorporated with different dilutions of the compounds of invention by a Multipoint Inoculator with each inoculum spot containing approximately 1×10^4 colony forming units (CFU) of bacteria.
(§4) The inoculated petridishes were incubated at 35° Celsius in an ambient atmosphere for 20 hours. Petridishes containing different concentrations of Vancomycin and Oxacillin and inoculated with Staphylococcus aureus, Coagulase Negative Staphylococci and Enterococci were incubated for 24 hours.
For orientation: In agar dilution the substance is mixed into plates at graded concentrations.

Another series has as its system S. aureus MRO 00055. Kind of series: Agar Dilution Method MIC, S. aureus MRO 00055. In kind it is cell-based. As to conditions: Staphylococcus aureus, MRO00055, Mueller Hinton Agar, 35° Celsius, 20 hours, read-out: Minimum Inhibitory Concentration (MIC in μg/ml). On the procedure: as §1, §2, §3, §4
Series [1] deals with M. catarrhalis ATCC 43627. Kind of series: Agar Dilution Method MIC, M. catarrhalis ATCC 43627. In kind it is cell-based, Morexella catarrhalis. Particulars: Moraxella catarrhalis, ATCC43627, Mueller Hinton Agar, 35° Celsius, 20 hours, read-out: Minimum Inhibitory Concentration (MIC in μg/ml). On the procedure: as §1, §2, §3, §4
The subject of another series is S. aureus MRO 00001. Kind of series: Agar Dilution Method MIC, S. aureus MRO 00001. As to conditions: Staphylococcus aureus, MRO00001, Mueller Hinton Agar, 35° Celsius, 20 hours, read-out: Minimum Inhibitory Concentration (MIC in μg/ml). The series is classed as cell-based. The procedure:
as §1, §2, §3, §4

In the next series the test system is S. aureus MRO 00059. Put plainly: Agar Dilution Method MIC, S. aureus MRO 00059. The series is classed as cell-based. Particulars: Staphylococcus aureus, MRO00059, Mueller Hinton Agar, 35° Celsius, 20 hours, read-out: Minimum Inhibitory Concentration (MIC in μg/ml). On the procedure: as §1, §2, §3, §4
The next series deals with E. faecalis ATCC 51299. Put plainly: Agar Dilution Method MIC, E. faecalis ATCC 51299. In kind it is cell-based. As to conditions: Enterococcus faecalis, ATCC51299, Mueller Hinton Agar, 35° Celsius, 20 hours, read-out: Minimum Inhibitory Concentration (MIC in μg/ml). The procedure:
as §1, §2, §3, §4

Another series deals with S. aureus ATCC 43300. Kind of series: Agar Dilution Method MIC, S. aureus ATCC 43300. As to conditions: Staphylococcus aureus, ATCC43300, Mueller Hinton Agar, 35° Celsius, 20 hours, read-out: Minimum Inhibitory Concentration (MIC in μg/ml). The series is classed as cell-based. The procedure:
as §1, §2, §3, §4

Another series deals with S. aureus MRO 00048. Put plainly: Agar Dilution Method MIC, S. aureus MRO 00048. In kind it is cell-based. Particulars: Staphylococcus aureus, MRO00048, Mueller Hinton Agar, 35° Celsius, 20 hours, read-out: Minimum Inhibitory Concentration (MIC in μg/ml). On the procedure:
as §1, §2, §3, §4

For a further series, the system named is E. fecalis MRO 04045. Kind of series: Agar Dilution Method MIC, E. fecalis MRO 04045. In kind it is cell-based. Particulars: Enterococcus faecalis, MRO04045, Mueller Hinton Agar, 35° Celsius, 20 hours, read-out: Minimum Inhibitory Concentration (MIC in μg/ml). The procedure:
as §1, §2, §3, §4

The subject of series [2] is M. catarrhalis ATCC 43617. Put plainly: Agar Dilution Method MIC, M. catarrhalis ATCC 43617. In kind it is cell-based, Morexella catarrhalis. Particulars: Moraxella catarrhalis, ATCC43617, Mueller Hinton Agar, 35° Celsius, 20 hours, read-out: Minimum Inhibitory Concentration (MIC in μg/ml). The procedure: as §1, §2, §3, §4
The test system of the next series is E. faecalis ATCC 29212. Kind of series: Agar Dilution Method MIC, E. faecalis ATCC 29212. The series is classed as cell-based. As to conditions: Enterococcus faecalis, ATCC29212, Mueller Hinton Agar, 35° Celsius, 20 hours, read-out: Minimum Inhibitory Concentration (MIC in μg/ml). On the procedure: as §1, §2, §3, §4
Series [3] relates to M. catarrhalis ATCC 43628. Put plainly: Agar Dilution Method MIC, M. catarrhalis ATCC 43628. The series is classed as cell-based, Morexella catarrhalis. Particulars: Moraxella catarrhalis, ATCC43628, Mueller Hinton Agar, 35° Celsius, 20 hours, read-out: Minimum Inhibitory Concentration (MIC in μg/ml). On the procedure:
as §1, §2, §3, §4

The next series relates to S. epidermidis MRO 02046. Kind of series: Agar Dilution Method MIC, S. epidermidis MRO 02046. In kind it is cell-based. Particulars: Staphylococcus epidermidis, MRO02046, Mueller Hinton Agar, 35° Celsius, 20 hours, read-out: Minimum Inhibitory Concentration (MIC in μg/ml). On the procedure: as §1, §2, §3, §4
The next series deals with S. aureus MRO 00003. Put plainly: Agar Dilution Method MIC, S. aureus MRO 00003. In kind it is cell-based. As to conditions: Staphylococcus aureus, MRO00003, Mueller Hinton Agar, 35° Celsius, 20 hours, read-out: Minimum Inhibitory Concentration (MIC in μg/ml). The procedure: as §1, §2, §3, §4
Another series deals with S. aureus MRO 00013. Kind of series: Agar Dilution Method MIC, S. aureus MRO 00013. The series is classed as cell-based. As to conditions: Staphylococcus aureus, MRO00013, Mueller Hinton Agar, 35° Celsius, 20 hours, read-out: Minimum Inhibitory Concentration (MIC in μg/ml). On the procedure: as §1, §2, §3, §4
The test system of another series is S. aureus MRO 00030. Put plainly: Agar Dilution Method MIC, S. aureus MRO 00030. The series is classed as cell-based. As to conditions: Staphylococcus aureus, MRO00030, Mueller Hinton Agar, 35° Celsius, 20 hours, read-out: Minimum Inhibitory Concentration (MIC in μg/ml). On the procedure:
as §1, §2, §3, §4

Each structure is given as a SMILES string. ≈ marks a conversion by molar mass, not a printed value. A value given as a limit tells only on which side of the number the result lay.

Broadly, the melting point is the temperature, or range, at which the solid turns liquid. In the case of `CC(=O)NC[C@H]1CN(c2ccc(N3CCN(C(=S)CN)CC3)c(F)c2)C(=O)O1.Cl`, the melting point fell in the range of 202 to 204 °C.
For `CC(=S)NC[C@H]1CN(c2ccc(N3CCN(C(=S)Cc4cccs4)CC3)c(F)c2)C(=O)O1` [Example 13, (S)-N-[3-[3-Fluoro-4-[4-(thiophen-2-ylthioacetyl)piperazin-1-yl]phenyl]-2-oxooxazolidin-5-ylmethyl]thioacetamide], the MIC in the series on S. aureus ATCC 29213 is 0.25 µg/mL (≈ 0.507 µM); with S. aureus MRO 00055, 1 µg/mL (≈ 2.03 µM); in series [1], 2 µg/mL (≈ 4.06 µM); in the series with S. aureus MRO 00001, 0.25 µg/mL (≈ 0.507 µM); in the series with S. aureus MRO 00059, 0.5 µg/mL (≈ 1.01 µM); in the series with E. faecalis ATCC 51299, 0.5 µg/mL (≈ 1.01 µM). Moreover, the MIC was determined as 0.5 µg/mL (≈ 1.01 µM) with S. aureus ATCC 43300; 0.25 µg/mL (≈ 0.507 µM) with S. aureus MRO 00048; 1 µg/mL (≈ 2.03 µM) in the series on E. fecalis MRO 04045; 2 µg/mL (≈ 4.06 µM) in series [2]; 0.5 µg/mL (≈ 1.01 µM) with E. faecalis ATCC 29212; 2 µg/mL (≈ 4.06 µM) in series [3]. For the same molecule, the MIC in the series with S. epidermidis MRO 02046 was found to be 0.25 µg/mL (≈ 0.507 µM); in the series with S. aureus MRO 00003 it was 1 µg/mL (≈ 2.03 µM); in the series on S. aureus MRO 00013, 1 µg/mL (≈ 2.03 µM); with S. aureus MRO 00030, 0.5 µg/mL (≈ 1.01 µM).
On to `CC(=S)NC[C@H]1CN(c2ccc(N3CCN(C(=S)c4cnccn4)CC3)c(F)c2)C(=O)O1` [Example 14, (S)-N-[3-[3-Fluoro-4-[4-(pyrazin-2-ylthiocarbonyl)piperazin-1-yl]phenyl]-2-oxooxazolidin-5-ylmethyl]thioacetamide], for which the MIC with S. aureus ATCC 29213 is 0.5 µg/mL (≈ 1.05 µM); with S. aureus MRO 00055, 0.5 µg/mL (≈ 1.05 µM); in [1], 2 µg/mL (≈ 4.21 µM); in the series on S. aureus MRO 00001, 0.25 µg/mL (≈ 0.527 µM); in the series on S. aureus MRO 00059, 0.25 µg/mL (≈ 0.527 µM); in the series on E. faecalis ATCC 51299, 0.25 µg/mL (≈ 0.527 µM). Further, the MIC turned out to be 0.25 µg/mL (≈ 0.527 µM) in the series on S. aureus ATCC 43300; 0.25 µg/mL (≈ 0.527 µM) in the series with S. aureus MRO 00048; 0.25 µg/mL (≈ 0.527 µM) in the series with E. fecalis MRO 04045; 2 µg/mL (≈ 4.21 µM) in series [2]; 0.25 µg/mL (≈ 0.527 µM) in the series with E. faecalis ATCC 29212; 2 µg/mL (≈ 4.21 µM) in [3]. Further, the MIC in the series with S. epidermidis MRO 02046 amounted to 0.25 µg/mL (≈ 0.527 µM); in the series with S. aureus MRO 00003, 0.5 µg/mL (≈ 1.05 µM); with S. aureus MRO 00013, 0.5 µg/mL (≈ 1.05 µM); with S. aureus MRO 00030 it was 0.5 µg/mL (≈ 1.05 µM).
As to `CC(=S)NC[C@H]1CN(c2ccc(N3CCN(C(=S)c4ncc[nH]4)CC3)c(F)c2)C(=O)O1` [Example 22, (S)-N-[3-[3-Fluoro-4-[4-(imidazol-2-ylthiocarbonyl)piperazin-1-yl]phenyl]-2-oxooxazolidin-5-ylmethyl]thioacetamide], the MIC in the series on S. aureus ATCC 29213 is 0.5 µg/mL (≈ 1.08 µM); in the series with S. aureus MRO 00055, 1 µg/mL (≈ 2.16 µM); in series [1] it was 1 µg/mL (≈ 2.16 µM); with S. aureus MRO 00001 it was 0.5 µg/mL (≈ 1.08 µM); in the series with S. aureus MRO 00059, 0.5 µg/mL (≈ 1.08 µM); in the series with E. faecalis ATCC 51299, under 0.25 µg/mL. Moreover, the MIC is 0.5 µg/mL (≈ 1.08 µM) in the series on S. aureus ATCC 43300; under 0.25 µg/mL with S. aureus MRO 00048; 1 µg/mL (≈ 2.16 µM) with E. fecalis MRO 04045; 1 µg/mL (≈ 2.16 µM) in [2]; 0.5 µg/mL (≈ 1.08 µM) in the series with E. faecalis ATCC 29212; 1 µg/mL (≈ 2.16 µM) in series [3]. Further, the MIC was under 0.25 µg/mL in the series with S. epidermidis MRO 02046, 0.5 µg/mL (≈ 1.08 µM) in the series with S. aureus MRO 00003, 1 µg/mL (≈ 2.16 µM) in the series on S. aureus MRO 00013 and 0.5 µg/mL (≈ 1.08 µM) with S. aureus MRO 00030.
For the molecule `CC(=S)NC[C@H]1CN(c2ccc(N3CCN(C(=O)Nc4ccc([N+](=O)[O-])cc4)CC3)c(F)c2)C(=O)O1` [Example 46], the MIC in the series on S. aureus ATCC 29213 was 0.5 µg/mL (≈ 0.968 µM); in the series on S. aureus MRO 00055, 0.5 µg/mL (≈ 0.968 µM); in series [1], 2 µg/mL (≈ 3.87 µM); with S. aureus MRO 00001, 0.25 µg/mL (≈ 0.484 µM); with S. aureus MRO 00059 it was 0.5 µg/mL (≈ 0.968 µM); with E. faecalis ATCC 51299, 0.25 µg/mL (≈ 0.484 µM). Moreover, the MIC with S. aureus ATCC 43300 amounted to 0.25 µg/mL (≈ 0.484 µM); in the series with S. aureus MRO 00048, 0.25 µg/mL (≈ 0.484 µM); with E. fecalis MRO 04045 it was 0.25 µg/mL (≈ 0.484 µM); in [2], 2 µg/mL (≈ 3.87 µM); in the series with E. faecalis ATCC 29212, 0.25 µg/mL (≈ 0.484 µM); in series [3], 2 µg/mL (≈ 3.87 µM). Also, the MIC in the series on S. epidermidis MRO 02046 was determined as 0.25 µg/mL (≈ 0.484 µM); with S. aureus MRO 00003 it was 0.5 µg/mL (≈ 0.968 µM); with S. aureus MRO 00013 it was 0.5 µg/mL (≈ 0.968 µM); in the series with S. aureus MRO 00030 it was 0.5 µg/mL (≈ 0.968 µM).
